According to patent publication EP4596547A1, “HETEROCYCLIC COMPOUND AND HARMFUL ARTHROPOD-CONTROLLING COMPOSITION CONTAINING SAME” (priority 2022, dated 2024):

Key:
Format in all cases: in vivo
[1] = test system: cotton aphids (Aphis gossypii); assay: Test method 1: foliar spray on cucumber seedlings inoculated with cotton aphids (formulation per Formulation Example 1); settings: 120 h, 500 ppm, sprayed 10 mL/seedling one day after inoculation, surviving insects examined after 5 days, 25°C, read-out: control value
[2] = test system: diamondback moth (Plutella xylostella); assay: Test method 4: sprayed cabbage foliage cut out, second instar larvae of diamondback moth released; settings: foliar, 120 h, sprayed 20 mL/seedling, five second instar larvae, after 5 days, 25°C
Procedure: A test compound is formed into a formulation according to the method described in Formulation Example 1, and water containing 0.03% by volume of Shindain (registered trademark) is added thereto to prepare a diluted solution containing the test compound at a predetermined concentration.
A cabbage (Brassicae oleracea) seedling (2 to 3 true leaf stage) planted in a container is sprayed with the diluted solution at a rate of 20 mL/seedling. Thereafter, the foliage portion of the seedling is cut out and placed in a container on which filter paper is laid. Thereto are released five second instar larvae of diamondback moth (Plutella xylostella). After 5 days, the number of surviving insects is counted, and the mortality is determined from the following equation. [formula]

Blattella germanica = assay: Test method 6: container inner surface coated with test compound, Blattella germanica; settings: 72 h
Procedure: An acetone solution prepared such that the amount of the test compound is 800 ppm is poured into a container having an internal volume of 50 mL, and the inner surface of the container is uniformly coated such that the amount of the test compound is 40 mg/m^2, and then dried.
Five male imagoes of Blattella germanica are placed in the container, and the lid is closed. After a lapse of a predetermined time, the state of Blattella germanica is examined, and the mortality is determined. The mortality is calculated by the following equation. [formula]

[3] = test system: common cutworm (Spodoptera litura); assay: Test method 9: sprayed cabbage seedling, third instar larvae of common cutworm released; settings: 144 h
Procedure: A test compound is formed into a formulation according to the method described in Formulation Example 5, and water containing 0.03% by volume of Shindain (registered trademark) is added thereto to prepare a diluted solution containing the test compound at a predetermined concentration.
A cabbage (Brassicae oleracea) seedling (3 to 4 true leaf stage) planted in a container is sprayed with the diluted solution at a rate of 20 mL/seedling. Thereafter, 10 third instar larvae of common cutworm (Spodoptera litura) are released. After 6 days, the number of surviving insects is counted, and the mortality is determined from the following equation. [formula]

[4] = test system: cotton aphids (Aphis gossypii); assay: Test method 11: foliar spray on cucumber seedlings inoculated with cotton aphids (formulation per Formulation Example 5); settings: 120 h, 200 ppm, sprayed 10 mL/seedling one day after inoculation, after 5 days, 25°C, read-out: control value
Culex pipiens pallens = assay: Test method 12: last-instar larvae of Culex pipiens pallens released into diluted solution; settings: 24 h, 30 last-instar larvae, one day later, 25°C
Procedure: The test compound is formulated according to the method described in Formulation Example 1, and water is added thereto to prepare a diluted solution containing the test compound at a predetermined concentration. 30 last-instar larvae of Culex pipiens pallens are released into the diluted solution, and the state of the larvae of Culex pipiens is examined one day later to determine the Mortality. The mortality is calculated by the following equation. [formula]

`CCSc1c(N(C)C(=O)c2cnn(C(F)(F)F)c2)nc2ccc(I)cn12` [compound 23] was tested, and the mortality at 500 ppm [1] was no less than 90%, the mortality at 500 ppm [2] was no less than 80% and the mortality at 40 mg/m2, 40 mg/m2 (Blattella germanica) was no less than 80%. For the same compound, the mortality at 200 ppm [3] was no less than 80%, the mortality at 200 ppm [4] was no less than 90% and the mortality at 3.5 ppm (Culex pipiens pallens) was greater than 90%.
